{"source": "paper PMC2853924", "about": "(Journal of medicinal chemistry, 2010)", "key": {"[1]": {"biological_target": "T1, Torpedo VAChT (Tetronarce californica, UniProt P81721)", "T1 sequence (P81721 1-515)": "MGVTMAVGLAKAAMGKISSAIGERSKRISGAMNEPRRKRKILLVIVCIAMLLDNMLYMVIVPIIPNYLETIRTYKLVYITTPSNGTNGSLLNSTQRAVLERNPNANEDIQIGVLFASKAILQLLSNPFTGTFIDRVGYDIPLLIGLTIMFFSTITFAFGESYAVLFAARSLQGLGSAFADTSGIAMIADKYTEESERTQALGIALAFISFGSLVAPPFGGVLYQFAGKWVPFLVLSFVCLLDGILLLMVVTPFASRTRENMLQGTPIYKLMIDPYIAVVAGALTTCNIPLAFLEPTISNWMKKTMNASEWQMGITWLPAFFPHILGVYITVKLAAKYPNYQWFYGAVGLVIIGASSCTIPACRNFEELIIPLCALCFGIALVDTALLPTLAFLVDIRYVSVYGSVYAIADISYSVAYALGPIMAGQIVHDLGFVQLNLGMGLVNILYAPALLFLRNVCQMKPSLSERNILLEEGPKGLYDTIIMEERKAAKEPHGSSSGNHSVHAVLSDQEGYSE", "conditions": "for VAChT/σ selectivity (in words): based on selectivity index; for VAChT/sigma selectivity index (selectivity ratio): Ki (σ1 or σ2)/Ki (VAChT)"}, "[2]": {"biological_target": "T1, Torpedo VAChT", "conditions": "read-out: VAChT (Ki [nM]), cited from earlier work"}, "[3]": {"biological_target": "σ1 receptor (Cavia porcellus, UniProt Q60492)", "sequence (Q60492 whole entry)": "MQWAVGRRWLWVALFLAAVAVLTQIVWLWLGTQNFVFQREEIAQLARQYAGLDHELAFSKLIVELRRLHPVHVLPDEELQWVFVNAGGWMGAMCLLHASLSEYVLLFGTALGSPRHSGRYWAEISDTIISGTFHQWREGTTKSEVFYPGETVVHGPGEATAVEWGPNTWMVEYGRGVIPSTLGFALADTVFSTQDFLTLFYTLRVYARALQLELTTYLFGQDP", "assay_type": "binding, guinea pig"}, "[4]": {"biological_target": "T2, σ2 receptor (Rattus norvegicus, UniProt Q5U3Y7)", "T2 sequence (Q5U3Y7 1-176)": "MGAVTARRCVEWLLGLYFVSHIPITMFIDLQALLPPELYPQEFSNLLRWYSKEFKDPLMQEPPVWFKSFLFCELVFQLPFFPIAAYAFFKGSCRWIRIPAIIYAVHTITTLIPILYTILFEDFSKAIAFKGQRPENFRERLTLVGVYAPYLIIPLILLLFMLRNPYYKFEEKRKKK", "experiment": "σ2 receptor binding assay, [3H]DTG, rat liver membrane homogenates"}}, "note": "Where two headings read alike, the source gives them in different places.", "data": [{"smiles": "Cl.O=C(c1ccccc1)C1(c2ccccc2)CCN([C@@H]2Cc3ccccc3C[C@H]2O)CC1", "note": "(relative stereo) [Compound 22a, trans-3-(4-Benzoyl-4-phenylpiperidinyl)-2-hydroxy-1,2,3,4-tetrahydronaphthalene hydrochloride]", "values": [{"measurement": "fold less potent at VAChT than benzovesamicol (2)", "setting": "[1]; relative to benzovesamicol (2)", "value": 30, "unit": "fold"}]}, {"smiles": "O=C(c1ccc(F)cc1)C1CCN([C@@H]2Cc3ccccc3C[C@H]2O)CC1", "note": "(relative stereo) [Compound 28b, trans-3-[4-(4-fluorobenzoyl)piperidinyl]-2-hydroxy-1,2,3,4-tetrahydronaphthalene]", "values": [{"measurement": "Ki", "setting": "[2]", "value": "2.7 ± 0.4", "unit": "nM"}]}, {"smiles": "Cl.O=C(c1ccc(Br)s1)C1CCN([C@@H]2Cc3ccccc3C[C@H]2O)CC1", "note": "(relative stereo) [Compound 28g, trans-3-[4-(5-Bromothienylcarbonyl)piperidinyl]-2-hydroxy-1,2,3,4-tetrahydronaphthalene hydrochloride]", "values": [{"measurement": "VAChT/σ selectivity (in words)", "setting": "[1]", "value": "high VAChT/σ selectivity"}]}, {"smiles": "Cl.O=C(c1ccc(I)s1)C1CCN([C@@H]2Cc3ccccc3C[C@H]2O)CC1", "note": "(relative stereo) [Compound 28h, trans-3-[4-(5-Iodothienylcarbonyl)piperidinyl]-2-hydroxy-1,2,3,4-tetrahydronaphthalene hydrochloride]", "values": [{"measurement": "VAChT/σ selectivity (in words)", "setting": "[1]", "value": "high VAChT/σ selectivity"}]}, {"smiles": "Cl.O=C(C1CCN([C@@H]2Cc3ccccc3C[C@H]2O)CC1)N1CCCCC1", "note": "(relative stereo) [Compound 34a, Trans-3-[4-(piperidyl)carbonylpiperidyl]-2-hydroxy-1,2,3,4-tetrahydronaphthalene hydrochloride]", "values": [{"measurement": "Selectivity Index Ki-σ1/Ki-VAChT", "setting": "[3]; Ki (σ1)/Ki (VAChT)", "value": ">32.3"}, {"measurement": "Selectivity Index Ki-σ2/Ki-VAChT", "setting": "[4]", "value": ">32.3"}]}, {"smiles": "Cl.O=C(C1CCN([C@@H]2Cc3ccccc3C[C@H]2O)CC1)N1CCC(c2ccccc2)CC1", "note": "(relative stereo) [Compound 34b, trans-3-[4-(4-Phenylpiperidyl)carbonylpiperidyl]-2-hydroxy-1,2,3,4-tetrahydronaphthalene hydrochloride]", "values": [{"measurement": "Selectivity Index Ki-σ2/Ki-VAChT", "setting": "[4]", "value": ">483.1"}]}, {"smiles": "Cl.O=C(C1CCN([C@@H]2Cc3ccccc3C[C@H]2O)CC1)N1CCC(Cc2ccccc2)CC1", "note": "(relative stereo) [Compound 34c, trans-3-[4-(4-Benzylpiperidyl)carbonylpiperidyl]-2-hydroxy-1,2,3,4-tetrahydronaphthalene hydrochloride]", "values": [{"measurement": "Selectivity Index Ki-σ2/Ki-VAChT", "setting": "[4]", "value": ">416.7"}]}, {"smiles": "Cl.O=C(C1CCN([C@@H]2Cc3ccccc3C[C@H]2O)CC1)N1CCN(Cc2ccccc2)CC1", "note": "(relative stereo) [Compound 34d, trans-3-[4-(4-Benzylpiperazinyl)carbonylpiperidyl]-2-hydroxy-1,2,3,4-tetrahydronaphthalene hydrochloride]", "values": [{"measurement": "Selectivity Index Ki-σ2/Ki-VAChT", "setting": "[4]", "value": ">480.8"}, {"measurement": "VAChT/σ selectivity (in words)", "setting": "[1]", "value": "moderate selectivity"}]}, {"smiles": "CCOC(=O)C1CCN([C@@H]2Cc3ccccc3C[C@H]2O)CC1.Cl", "note": "(relative stereo) [Compound 34e, trans-3-[4-Ethoxycarbonylpiperidyl]-2-hydroxy-1,2,3,4-tetrahydronaphthalene hydrochloride]", "values": [{"measurement": "Selectivity Index Ki-σ1/Ki-VAChT", "setting": "[3]; Ki (σ1)/Ki (VAChT)", "value": ">14.6"}, {"measurement": "Selectivity Index Ki-σ2/Ki-VAChT", "setting": "[4]", "value": ">14.6"}]}, {"smiles": "Nc1cccc2c1CC(N1CCC(c3ccccc3)CC1)C(O)C2", "note": "(stereo not shown) [Compound 3, reference compound]", "values": [{"measurement": "Ki", "setting": "[2]; Torpedo synaptic vesicles", "value": "0.0065 ± 0.0005", "unit": "nM"}]}, {"smiles": "Cl.O=C(c1ccccc1)C1(c2ccccc2)CCN([C@@H]2CCCC[C@H]2O)CC1", "note": "[Compound 20, 2-(4-Benzoyl-4-phenylpiperidinyl)cyclohexanol hydrochloride]", "values": [{"measurement": "fold lower affinity for VAChT than vesamicol (1)", "setting": "[1]; relative to vesamicol (1)", "value": 35, "unit": "fold"}]}, {"smiles": "Cl.O=C(c1ccc(I)s1)C1CCN([C@@H]2CCCC[C@H]2O)CC1", "note": "[Compound 27h, 2-[4-(5-Iodothien-2-yl)carbonylpiperidinyl]cyclohexanol hydrochloride]", "values": [{"measurement": "affinity for σ1 receptors (class in words)", "setting": "[3]", "value": "high (high (Ki = 1–10 nM))"}]}, {"smiles": "Cl.Nc1cccc2c1C[C@@H](N1CCC(C(=O)c3ccc(F)cc3)CC1)[C@H](O)C2", "note": "[Compound 30b, 5-Amino-3-[4-(p-fluorobenzoyl)piperidinyl]-2-hydroxy-1,2,3,4,-tetrahydronaphthalene hydrochloride]", "values": [{"measurement": "Selectivity Index Ki-σ1/Ki-VAChT", "setting": "[3]", "value": ">416.7"}, {"measurement": "Selectivity Index Ki-σ2/Ki-VAChT", "setting": "[4]", "value": ">416.7"}]}, {"smiles": "Cl.Nc1cccc2c1C[C@@H](N1CCC(C(=O)c3ccc(Br)cc3)CC1)[C@H](O)C2", "note": "[Compound 30c, 5-Amino-3-[4-(p-bromobenzoyl)piperidinyl]-2-hydroxy-1,2,3,4,-tetrahydronaphthalene hydrochloride]", "values": [{"measurement": "VAChT/sigma selectivity index (selectivity ratio)", "setting": "[1]", "value": "greater than 500"}]}, {"smiles": "Cl.Nc1cccc2c1C[C@@H](N1CCC(C(=O)c3cccs3)CC1)[C@H](O)C2", "note": "[Compound 30f, 5-Amino-3-[4-(thien-2-yl)carbonylpiperidyl]-2-hydroxy-1,2,3,4-tetrahydronaphthalene hydrochloride]", "values": [{"measurement": "Selectivity Index Ki-σ1/Ki-VAChT", "setting": "[3]; Ki (σ1)/Ki (VAChT)", "value": ">204.1"}, {"measurement": "Selectivity Index Ki-σ2/Ki-VAChT", "setting": "[4]", "value": ">204.1"}]}, {"smiles": "Cl.Nc1cccc2c1C[C@@H](N1CCC(C(=O)c3ccc(Br)s3)CC1)[C@H](O)C2", "note": "[Compound 30g, 5-Amino-3-[4-(5-bromothien-2-yl)carbonylpiperidinyl]-2-hydroxy-1,2,3,4-tetrahydronaphthalene hydrochloride]", "values": [{"measurement": "Selectivity Index Ki-σ1/Ki-VAChT", "setting": "[3]", "value": ">2439.0"}, {"measurement": "Selectivity Index Ki-σ2/Ki-VAChT", "setting": "[4]", "value": ">2439.0"}, {"measurement": "VAChT/sigma selectivity index (selectivity ratio)", "setting": "[1]", "value": "greater than 1000"}]}, {"smiles": "Cl.Nc1cccc2c1C[C@@H](O)[C@H](N1CCC(C(=O)c3cccs3)CC1)C2", "note": "[Compound 31f, 8-Amino-3-[4-(thien-2-yl)carbonylpiperidyl]-2-hydroxy-1,2,3,4-tetrahydronaphthalene hydrochloride]", "values": [{"measurement": "Selectivity Index Ki-σ1/Ki-VAChT", "setting": "[3]", "value": ">7.5"}, {"measurement": "Selectivity Index Ki-σ2/Ki-VAChT", "setting": "[4]", "value": ">7.5"}]}]}
